{
  "source": "paper PMC3010111",
  "about": "(Molecular Systems Biology, 2010)",
  "target": "T1, AroB (dehydroquinate synthase) (Escherichia coli, UniProt P07639)",
  "T1 sequence (P07639 1-362)": "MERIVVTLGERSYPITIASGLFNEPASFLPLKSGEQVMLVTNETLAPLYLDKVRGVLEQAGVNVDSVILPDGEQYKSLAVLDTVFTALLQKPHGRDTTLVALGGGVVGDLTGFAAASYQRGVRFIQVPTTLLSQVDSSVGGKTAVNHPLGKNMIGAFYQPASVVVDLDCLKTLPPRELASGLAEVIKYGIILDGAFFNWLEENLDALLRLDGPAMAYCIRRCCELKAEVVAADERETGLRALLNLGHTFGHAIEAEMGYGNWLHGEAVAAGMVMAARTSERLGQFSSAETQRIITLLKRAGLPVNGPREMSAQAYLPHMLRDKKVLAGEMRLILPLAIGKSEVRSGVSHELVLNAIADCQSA",
  "assay": "NAD+ reduction",
  "format": "biochemical",
  "details": "2 mM NAD+, 100 mM Tris–HCl pH 7.5, 10°C; 11 μM AroB",
  "data": [
    {"smiles": "O=C(O)[C@H](O)[C@H](O)COP(=O)(O)O", "note": "[4PE]", "values": [
      {"measurement": "NAD+ reduction; single turnover (data not shown)", "value": "AroB also oxidizes 4PE, but carries out only a single turnover (data not shown)."}
    ]}
  ]
}
